Among the data in ChEMBL document CHEMBL3039007, “Structure-based identification of OATP1B1/3 inhibitors” (Mol Pharmacol, 2013) are residual activity values, retold here.

Data set [1] addresses T1, Solute carrier organic anion transporter family member 1B3 (Homo sapiens, UniProt Q9NPD5).
T1 sequence (Q9NPD5 whole entry): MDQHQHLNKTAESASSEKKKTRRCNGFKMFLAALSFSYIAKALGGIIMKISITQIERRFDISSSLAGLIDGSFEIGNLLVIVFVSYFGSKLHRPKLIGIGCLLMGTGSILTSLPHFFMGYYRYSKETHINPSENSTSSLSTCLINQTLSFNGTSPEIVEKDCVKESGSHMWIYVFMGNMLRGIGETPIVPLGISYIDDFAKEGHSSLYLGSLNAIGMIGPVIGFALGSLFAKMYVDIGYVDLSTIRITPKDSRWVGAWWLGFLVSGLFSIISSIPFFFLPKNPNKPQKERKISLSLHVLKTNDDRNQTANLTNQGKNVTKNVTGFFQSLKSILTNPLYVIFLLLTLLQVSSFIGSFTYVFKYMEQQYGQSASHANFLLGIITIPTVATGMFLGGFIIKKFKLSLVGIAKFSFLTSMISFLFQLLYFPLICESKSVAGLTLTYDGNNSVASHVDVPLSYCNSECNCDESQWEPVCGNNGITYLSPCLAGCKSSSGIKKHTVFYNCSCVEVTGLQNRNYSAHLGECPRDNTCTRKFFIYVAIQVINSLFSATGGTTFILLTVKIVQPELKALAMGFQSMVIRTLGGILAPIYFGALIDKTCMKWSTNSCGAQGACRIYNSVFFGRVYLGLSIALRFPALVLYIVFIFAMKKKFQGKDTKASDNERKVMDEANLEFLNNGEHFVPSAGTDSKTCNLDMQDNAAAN
The note with it: chinese hamster, cho, 10 µM.

The target of data set [2] is T2, Solute carrier organic anion transporter family member 1B1 (Homo sapiens, UniProt Q9Y6L6).
T2 sequence (Q9Y6L6 whole entry): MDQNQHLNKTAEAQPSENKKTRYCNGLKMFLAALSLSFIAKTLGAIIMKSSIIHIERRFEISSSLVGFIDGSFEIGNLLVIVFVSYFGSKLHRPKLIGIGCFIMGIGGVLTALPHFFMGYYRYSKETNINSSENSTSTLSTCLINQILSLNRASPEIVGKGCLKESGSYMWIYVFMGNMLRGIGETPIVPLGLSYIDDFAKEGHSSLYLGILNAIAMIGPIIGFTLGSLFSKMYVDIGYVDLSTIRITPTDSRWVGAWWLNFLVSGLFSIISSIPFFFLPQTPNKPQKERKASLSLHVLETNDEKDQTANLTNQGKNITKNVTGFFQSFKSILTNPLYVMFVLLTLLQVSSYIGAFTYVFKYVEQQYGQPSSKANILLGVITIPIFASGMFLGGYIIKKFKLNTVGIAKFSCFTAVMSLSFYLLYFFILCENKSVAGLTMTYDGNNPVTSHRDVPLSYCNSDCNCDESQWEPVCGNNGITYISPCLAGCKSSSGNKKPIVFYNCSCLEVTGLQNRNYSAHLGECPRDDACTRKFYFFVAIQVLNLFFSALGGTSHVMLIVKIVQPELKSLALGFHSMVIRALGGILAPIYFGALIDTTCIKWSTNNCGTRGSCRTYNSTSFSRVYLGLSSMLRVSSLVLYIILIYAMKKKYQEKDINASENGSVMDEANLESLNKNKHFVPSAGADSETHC
Particulars: chinese hamster, cho, 10 µM.

In general, residual activity refers to the signal under treatment as a percentage of the control signal. Take `COc1cc(O)c(C)c(O)c1` [2,6-DIHYDROXY-4-METHOXYTOLUENE]: the residual activity in data set [1] came to 91.69%; in data set [2], 108.8%.
As to `COC1=CC(=O)C=C(OC)C1=O` [2,6-DIMETHOXYQUINONE], the residual activity in data set [1] is on record as 101.9%; in data set [2], 115.1%.
`COc1cccc(OC)c1OCCNCC1COc2ccccc2O1.Cl` (stereo not given) [2- (2,6-DIMETHOXYPHENOXYETHYL)AMINOMETHYL-1,4-BENZODIOXANE HYDROCHLORIDE (WB 4101)]: the values for the residual activity in data set [1] and in data set [2] were 96.02% and 247.1%, respectively.
`CC(=O)c1ccc[nH]1` [2-ACETYLPYRROLE]: the residual activity in data set [1] is reported as 98.29%; in data set [2], 111.7%.
The matching figures for `COC1=CC(=O)C(C(=O)c2ccccc2)=CC1=O` [2-BENZOYL-5-METHOXYBENZOQUINONE]: 165.6% and 106.8%.
Turning to `CCOC(=O)C(=O)C1(C(=O)OCC)Oc2cc(OC)cc(OC)c2C(=O)C1c1ccccc1` (stereo not given) [2-ETHOXYCARBONYL-2-ETHOXYOXALOYLOXYDIHYDROCHRYSIN DIMETHYL ETHER], the residual activity in data set [1] worked out at 100.5%; in data set [2], 117%.
Regarding `CCOC(=O)C1(O)Oc2cc(OC)cc(OC)c2C(=O)C1c1ccccc1` (stereo not given) [2-ETHOXYCARBONYL-2-HYDROXY-5,7-DIMETHOXYISOFLAVANONE], the residual activity in data set [1] was found to be 104%; in data set [2] it was 106.9%.
`COc1ccc(C(=O)O)c(O)c1OC` [2-HYDROXY-3,4-DIMETHOXYBENZOIC ACID]: the residual activity in data set [1] is given as 82.78%; in data set [2] it was 82.39%.
The matching figures for `CC1(C)CC2C1CCC1(C)OC1CCC2(C)O` (stereo not given) [2-HYDROXY-5 (6)EPOXY-TETRAHYDROCARYOPHYLLENE]: 86.53% and 70.41%.
On to `CC(C)=CCc1c(O)cc(C)oc1=O` [2-ISOPRENYL-3-HYDROXY-5-METHYL-a-PYRONE], for which the residual activity in data set [1] amounted to 115.1%; in data set [2], 101.1%.
On to `COc1cccc(/C=C/C(=O)O)c1C(C)C` [2-ISOPROPYL-3-METHOXYCINNAMIC ACID], for which the residual activity in data set [1] amounted to 87.92%; in data set [2] it was 137.6%.
In the case of `Sc1nc2ccccc2s1` [2-MERCAPTOBENZOTHIAZOLE], the residual activity in data set [1] was found to be 97.95%; in data set [2], 158.6%.
In the same order, the values of `COC1(C)CCC2OC2(C)CCC2C1CC2(C)C` (stereo not given) [2-METHOXY-5 (6)EPOXY-TETRAHYDROCARYOPHYLLENE] are 93.07% and 92.29%.
Consider `COc1c(O)cccc1O` [2-METHOXYRESORCINOL], for which the residual activity is 98.72% in data set [1] and 95.14% in data set [2].
For the compound `Cc1[nH]c2ccccc2c1CN(C)C` [2-METHYL GRAMINE], the residual activity in data set [1] turned out to be 80.09%; in data set [2], 39.17%.
For `Cc1occc(=O)c1/C=C/O` [2-METHYL-3-HYDROXYETHYLENEPYRAN-4-ONE], the figures for the residual activity in data set [1] and in data set [2] were 107% and 96.24%, respectively.
The matching figures for `COc1cc(OC)c2c(=O)c(-c3ccccc3)c(C)oc2c1OC` [2-METHYL-5,7,8-TRIMETHOXYISOFLAVONE]: 98.52% and 115.1%.
For `C=C1CCC(C2CC(=O)OC2=O)C(=O)CCC2C1CC2(C)C` (stereo not given) [2-METHYLENE-5-(2,5-DIOXOTETRAHYDROFURAN-3-YL)-6-OXO--10,10-DIMETHYLBICYCLO[7: 2: 0]UNDECANE], the residual activity in data set [1] was 47.58%; in data set [2], 29.82%.
For `CCCc1occc(=O)c1/C=C/O` [2-PROPYL-3-HYDROXYETHYLENEPYRAN-4-ONE], the residual activity stood at 129.3% in data set [1] and 128.5% in data set [2].
Turning to `COc1ccc(-c2cc(=O)c3ccccc3o2)cc1OC` [3',4'-DIMETHOXYFLAVONE], the residual activity in data set [1] was determined as 129.7%; in data set [2], 187.6%.
For the compound `CC1(O)CC2C(CC1O)C2(C)C` (stereo not given) [3,4-DIHYDROXYCARANE], the residual activity worked out at 98.2% in data set [1] and 101% in data set [2].
As for `C=C[C@@H](C1=CC(=O)C(OC)=C(OC)C1=O)c1ccccc1` [3,4-DIMETHOXYDALBERGIONE], the residual activity in data set [1] is recorded as 114.1%; in data set [2], 215.8%.
In the same order, the values of `O=[N+]([O-])c1cc(O)c(O)c([N+](=O)[O-])c1` [3,5-DINITROCATECHOL (OR-486)] are 75.38% and 38.63%.
In the case of `COc1c(Cl)ccc(Cl)c1C(=O)O` [3,6 DICHLOROMETHOXYBENZOIC ACID], the figures for the residual activity in data set [1] and in data set [2] were 155.5% and 88.8%, respectively.
For the compound `COc1ccc2oc(-c3ccccc3)c(OC)c(=O)c2c1` [3,6-DIMETHOXYFLAVONE], the residual activity in data set [1] stood at 76.93%; in data set [2] it was 99.01%.
`O=c1c(O)c(-c2ccccc2)oc2cc(O)ccc12` [3,7-DIHYDROXYFLAVONE]: the residual activity in data set [1] amounted to 120.8%; in data set [2] it was 151.5%.
Regarding `COc1ccc2c(=O)c(OC)c(-c3ccccc3)oc2c1` [3,7-DIMETHOXYFLAVONE], the values for the residual activity in data set [1] and in data set [2] were 144.6% and 59.28%, respectively.
For the compound `CC1(C)CC2C1CCC1(C)OC2(C)CCC1O` (stereo not given) [3,7-EPOXYCARYOPHYLLAN-6-OL], the residual activity in data set [1] amounted to 80.05%; in data set [2] it was 57.88%.
With `CC12CCC3C(CC3(C)C)C(C)(CCC1=O)O2` (stereo not given) [3,7-EPOXYCARYOPHYLLAN-6-ONE], the residual activity in data set [1] is listed as 93.4%; in data set [2], 72.4%.
In the case of `COC(=O)C[C@H]1C(C)(C)[C@H](O)[C@@H]2CC3=C4CC(O)O[C@@H](c5ccoc5)[C@@]4(C)CCC3[C@]1(C)C2=O` (stereo partly drawn) [3,16-DIDEOXYMEXICANOLIDE-3alpha-DIOL], the residual activity amounted to 96.33% in data set [1] and 67.63% in data set [2].
In the case of `COC(=O)C[C@H]1C(C)(C)[C@@H](O)[C@@H]2CC3=C4CC(O)O[C@@H](c5ccoc5)[C@]4(C)CCC3[C@@]1(C)C2=O` (stereo partly drawn) [3,16-DIDEOXYMEXICANOLIDE-3beta-DIOL], the residual activity amounted to 53.76% in data set [1] and 51.44% in data set [2].
For `C=C1C(N)CC2CC1C2(C)C` (stereo not drawn) [3-AMINO-beta-PINENE], the values for the residual activity in data set [1] and in data set [2] were 104.4% and 92.27%, respectively.
With `NC(=O)c1cccc(N)c1` [3-AMINOBENZAMIDE], the residual activity is 110.7% in data set [1] and 106.1% in data set [2].
Consider `CC(=O)O[C@H]1C[C@@H](O)C(C)(C)[C@@H]2C[C@@H](OC(C)=O)[C@]3(C)[C@H](CC[C@@]4(C)[C@@H](c5ccoc5)OC(=O)[C@H]5O[C@@]534)[C@@]12C` [3-DEACETYLKHIVORIN], for which the residual activity came out at 88.69% in data set [1] and 94.07% in data set [2].
In the same order, the values of `COC(=O)C[C@H]1C(C)(C)[C@@H](O)[C@@H]2CC3=C4C=C(OC)O[C@@H](c5ccoc5)[C@]4(C)CCC3[C@@]1(C)C2=O` (stereo partly drawn) [3-DEOXO-3beta-HYDROXYMEXICANOLIDE 16-ENOL ETHER] are 106.5% and 27.18%.
